Laboratory results: patent publication US7323469B2, “7H-pyrrolo[2,3-d]pyrimidine derivatives” (Novartis AG, priority 2001, dated 2008)

Tests used:
VEGF Receptor (KDR) = VEGF Receptor (KDR) (Homo sapiens, UniProt P35968); experiment: Inhibition of KDR tyrosine kinase activity; format: biochemical
Experimental: The compounds of the present invention are therefore very effective dual inhibitors of EGF- and VEGF-receptor family members. For inhibition of KDR and Flt-1 and inhibition of growth factor-induced proliferation of HUVECS see J. Wood et al., Cancer Res. 60, 2178-2189 (2000). The compounds of formula I inhibit e.g. the KDR tyrosine kinase activity with an IC50 of from about 1 nM to about 1 μM, especially from about 5 nM to about 0.5 μM.
(§1) Inhibition of the Tyrosine Kinase Activity of EGF-R (HER-1), ErbB-2 (HER-2) and VEGF Receptor (KDR)
(§2) The inhibition tests are carried out as described above.

EGF-R (HER-1) = molecular target: T1, EGF-R (HER-1) (Homo sapiens, UniProt P00533); experiment: Inhibition of EGF-R tyrosine kinase activity (recombinant intracellular domain, EGF-R ICD); format: biochemical
T1 construct: using the recombinant intracellular domain of the EGF-receptor [EGF-R ICD
Experimental: J. Biochem. 207, 265-275 (1992)].
as §1, §2

ErbB-2 (HER-2) = ErbB-2 (HER-2) (Homo sapiens, UniProt P04626); experiment: Inhibition of ErbB-2 tyrosine kinase activity; format: biochemical
Experimental: The inhibitory activity (IC50) is approximately in the range of 0.001 to 0.5 μM. The inhibition of ErbB-2 tyrosine kinase (HER-2) can be determined, for example, analogously to the method used for EGF-R protein tyrosine kinase [see C. House et al., Europ. J. Biochem. 140, 363-367 (1984)]. The ErbB-2 kinase can be isolated, and its activity determined, by means of protocols known per se, for example in accordance with T. Akiyama et al., Science 232, 1644 (1986).
as §1, §2

ErbB-2 (HER-2), sequence (P04626 23-1255): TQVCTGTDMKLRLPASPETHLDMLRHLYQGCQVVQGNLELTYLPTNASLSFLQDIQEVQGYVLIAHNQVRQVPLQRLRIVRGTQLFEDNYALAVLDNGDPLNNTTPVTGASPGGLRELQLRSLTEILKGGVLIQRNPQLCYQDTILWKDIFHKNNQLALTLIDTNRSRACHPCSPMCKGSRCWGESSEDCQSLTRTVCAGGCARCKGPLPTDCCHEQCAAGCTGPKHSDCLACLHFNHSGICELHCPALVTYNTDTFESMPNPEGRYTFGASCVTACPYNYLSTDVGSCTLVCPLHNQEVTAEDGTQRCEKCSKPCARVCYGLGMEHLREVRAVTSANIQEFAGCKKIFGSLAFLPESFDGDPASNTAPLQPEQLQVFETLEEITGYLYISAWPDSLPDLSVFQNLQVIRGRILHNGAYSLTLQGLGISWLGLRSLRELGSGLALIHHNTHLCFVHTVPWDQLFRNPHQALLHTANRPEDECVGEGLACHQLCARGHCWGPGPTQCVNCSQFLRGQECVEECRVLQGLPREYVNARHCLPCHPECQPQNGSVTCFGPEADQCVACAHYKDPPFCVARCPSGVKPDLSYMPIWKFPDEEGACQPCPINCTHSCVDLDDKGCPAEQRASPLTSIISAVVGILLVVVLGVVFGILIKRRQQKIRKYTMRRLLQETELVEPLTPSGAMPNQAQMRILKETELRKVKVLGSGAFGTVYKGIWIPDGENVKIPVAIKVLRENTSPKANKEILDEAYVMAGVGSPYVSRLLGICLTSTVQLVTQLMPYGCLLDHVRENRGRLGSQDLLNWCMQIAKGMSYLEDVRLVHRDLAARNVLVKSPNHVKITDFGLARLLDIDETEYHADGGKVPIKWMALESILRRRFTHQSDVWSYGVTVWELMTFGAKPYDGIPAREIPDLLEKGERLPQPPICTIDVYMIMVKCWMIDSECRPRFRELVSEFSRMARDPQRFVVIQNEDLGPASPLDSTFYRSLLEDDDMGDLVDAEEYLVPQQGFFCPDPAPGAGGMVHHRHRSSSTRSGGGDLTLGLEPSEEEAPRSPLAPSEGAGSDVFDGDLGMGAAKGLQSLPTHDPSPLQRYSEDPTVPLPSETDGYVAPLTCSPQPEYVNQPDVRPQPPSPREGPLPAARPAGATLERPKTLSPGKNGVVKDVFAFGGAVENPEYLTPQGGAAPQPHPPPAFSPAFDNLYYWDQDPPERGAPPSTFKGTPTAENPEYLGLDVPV
VEGF Receptor (KDR), sequence (P35968 20-1356): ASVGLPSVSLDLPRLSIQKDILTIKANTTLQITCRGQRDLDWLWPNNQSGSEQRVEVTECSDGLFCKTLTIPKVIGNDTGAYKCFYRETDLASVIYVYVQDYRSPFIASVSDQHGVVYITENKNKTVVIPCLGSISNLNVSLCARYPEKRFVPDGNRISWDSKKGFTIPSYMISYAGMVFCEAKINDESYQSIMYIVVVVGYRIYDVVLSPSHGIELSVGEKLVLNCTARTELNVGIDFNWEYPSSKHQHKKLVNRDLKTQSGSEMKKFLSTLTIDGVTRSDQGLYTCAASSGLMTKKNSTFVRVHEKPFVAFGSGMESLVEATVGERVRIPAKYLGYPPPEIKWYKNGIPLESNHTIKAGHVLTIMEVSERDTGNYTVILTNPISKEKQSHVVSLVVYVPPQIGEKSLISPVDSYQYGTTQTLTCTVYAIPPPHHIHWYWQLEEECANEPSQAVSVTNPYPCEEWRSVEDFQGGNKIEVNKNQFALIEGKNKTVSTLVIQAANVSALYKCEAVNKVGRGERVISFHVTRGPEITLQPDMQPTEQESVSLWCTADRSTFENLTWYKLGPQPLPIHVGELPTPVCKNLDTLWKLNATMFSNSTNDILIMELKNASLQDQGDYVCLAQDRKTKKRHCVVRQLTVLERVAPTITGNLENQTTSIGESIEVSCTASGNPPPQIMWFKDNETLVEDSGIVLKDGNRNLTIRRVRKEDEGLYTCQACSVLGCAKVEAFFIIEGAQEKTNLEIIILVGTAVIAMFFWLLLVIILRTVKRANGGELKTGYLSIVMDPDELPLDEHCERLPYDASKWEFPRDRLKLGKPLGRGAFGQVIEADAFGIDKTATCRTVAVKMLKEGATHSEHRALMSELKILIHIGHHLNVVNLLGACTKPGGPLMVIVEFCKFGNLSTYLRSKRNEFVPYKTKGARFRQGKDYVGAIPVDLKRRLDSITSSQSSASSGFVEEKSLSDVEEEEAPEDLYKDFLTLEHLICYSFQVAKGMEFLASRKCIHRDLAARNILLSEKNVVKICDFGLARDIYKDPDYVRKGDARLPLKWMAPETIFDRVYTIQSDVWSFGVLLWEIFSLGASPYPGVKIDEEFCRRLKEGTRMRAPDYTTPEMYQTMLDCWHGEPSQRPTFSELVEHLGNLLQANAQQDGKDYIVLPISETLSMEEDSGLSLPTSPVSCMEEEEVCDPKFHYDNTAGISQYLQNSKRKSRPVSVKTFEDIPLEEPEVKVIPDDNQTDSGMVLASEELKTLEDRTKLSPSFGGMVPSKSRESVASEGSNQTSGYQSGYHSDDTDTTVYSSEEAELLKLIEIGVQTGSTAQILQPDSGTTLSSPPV
T1 sequence (P00533 669-1210 limits assumed): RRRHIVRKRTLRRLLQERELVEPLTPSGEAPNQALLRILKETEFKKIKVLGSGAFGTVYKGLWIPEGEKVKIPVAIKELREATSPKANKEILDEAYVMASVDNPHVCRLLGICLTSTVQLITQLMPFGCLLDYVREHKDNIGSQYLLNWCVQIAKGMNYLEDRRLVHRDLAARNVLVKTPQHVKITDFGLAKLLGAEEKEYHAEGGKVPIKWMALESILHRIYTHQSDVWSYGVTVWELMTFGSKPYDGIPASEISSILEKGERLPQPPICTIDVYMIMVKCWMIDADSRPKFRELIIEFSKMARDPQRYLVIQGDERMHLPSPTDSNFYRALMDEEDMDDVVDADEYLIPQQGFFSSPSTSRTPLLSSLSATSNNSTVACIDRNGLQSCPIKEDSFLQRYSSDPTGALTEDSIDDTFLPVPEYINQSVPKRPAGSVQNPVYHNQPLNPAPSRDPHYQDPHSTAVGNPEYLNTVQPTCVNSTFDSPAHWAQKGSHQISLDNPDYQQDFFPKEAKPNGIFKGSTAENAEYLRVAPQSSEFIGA

SMILES	IC50 (VEGF Receptor (KDR)) [nM]	IC50 (EGF-R (HER-1)) [nM]	IC50 (ErbB-2 (HER-2)) [nM]	melting point [°C]
Cc1cccc(CNc2ncnc3[nH]c(-c4ccc(CN(C)C)cc4)cc23)c1 [107f^]	19	2.5	45	–
CCN1CCN(Cc2ccc(-c3cc4c(Nc5ccc(F)c(Cl)c5)ncnc4[nH]3)cc2)CC1 [Example 3, (3-Chloro-4-fluoro-phenyl)-{6-[4-(4-ethyl-piperazin-1-ylmethyl)-phenyl]-7H-pyrrolo[2,3-d]pyrimidin-4-yl}-amine]	10.7	3.1	8	266 to 268
Fc1ccc(Nc2ncnc3[nH]c(-c4ccc(CN5CCCC5)cc4)cc23)cc1Cl [Example 4, (3-Chloro-4-fluoro-phenyl)-[6-(4-pyrrolidin-1-ylmethyl-phenyl)-7H-pyrrolo[2,3-d]pyrimidin-4-yl]-amine]	9.3	3.1	7.2	268 to 270
CN1CCN(Cc2ccc(-c3cc4c(Nc5ccc(F)c(Cl)c5)ncnc4[nH]3)cc2)CC1 [Example 5, (3-Chloro-4-fluoro-phenyl)-{6-[4-(4-methyl-piperazin-1-ylmethyl)-phenyl]-7H-pyrrolo[2,3-d]pyrimidin-4-yl}-amine]	6	3.1	6.7	264 to 266
Fc1ccc(Nc2ncnc3[nH]c(-c4ccc(CN5CCCCC5)cc4)cc23)cc1Cl [Example 6, (3-Chloro-4-fluoro-phenyl)-[6-(4-piperidin-1-ylmethyl-phenyl)-7H-pyrrolo[2,3-d]pyrimidin-4-yl]-amine]	12.7	7	5	267 to 269
Fc1ccc(Nc2ncnc3[nH]c(-c4ccc(CN5CCOCC5)cc4)cc23)cc1Cl [Example 7, (3-Chloro-4-fluoro-phenyl)-[6-(4-morpholin-4-ylmethyl-phenyl)-7H-pyrrolo[2,3-d]pyrimidin-4-yl]-amine]	58	4	11	298 to 300
CCN(CC)Cc1ccc(-c2cc3c(N[C@H](C)c4ccccc4)ncnc3[nH]2)cc1 [Example 10, [6-(4-Diethylamino-methyl-phenyl)-7H-pyrrolo[2,3-d]pyrimidin-4-yl]-((R)-1-phenyl-ethyl)-amine]	29.3	–	9	246 to 248
CCN1CCN(Cc2ccc(-c3cc4c(N[C@H](C)c5ccccc5)ncnc4[nH]3)cc2)CC1 [Example 11, {6-[4-(4-Ethyl-piperazin-1-ylmethyl)-phenyl]-7H-pyrrolo[2,3-d]pyrimidin-4-yl}-((R)-1-phenyl-ethyl)-amine]	49.7	–	5	–
C[C@@H](Nc1ncnc2[nH]c(-c3ccc(CN4CCCC4)cc3)cc12)c1ccccc1 [Example 12, ((R)-1-Phenyl-ethyl)-[6-(4-pyrrolidin-1-ylmethyl-phenyl)-7H-pyrrolo[2,3-d]pyrimidin-4-yl]-amine]	139	4.7	5	254 to 256
C[C@@H](Nc1ncnc2[nH]c(-c3ccc(CN(C)C)cc3)cc12)c1ccccc1 [Example 13, [6-(4-Dimethylamino-methyl-phenyl)-7H-pyrrolo[2,3-d]pyrimidin-4-yl]-((R)-1-phenyl-ethyl)-amine]	88	6	5	–
C[C@@H](Nc1ncnc2[nH]c(-c3ccc(CN4CCCCC4)cc3)cc12)c1ccccc1 [Example 14, ((R)-1-Phenyl-ethyl)-[6-(4-piperidin-1-ylmethyl-phenyl)-7H-pyrrolo[2,3-d]pyrimidin-4-yl]-amine]	92.7	6.3	8.5	246 to 248
C[C@@H](Nc1ncnc2[nH]c(-c3ccc(CN4CCOCC4)cc3)cc12)c1ccccc1 [Example 15, [6-(4-Morpholin-4-ylmethyl-phenyl)-7H-pyrrolo[2,3-d]pyrimidin-4-yl]-((R)-1-phenyl-ethyl)-amine]	49.3	5	6.5	263 to 265
COc1ccc(Nc2ncnc3[nH]c(-c4ccc(CN5CCOCC5)cc4)cc23)cn1 [Example 111, (6-Methoxy-pyridin-3-yl)-[6-(4-morpholin-4-ylmethyl-phenyl)-7H-pyrrolo[2,3-d]pyrimidin-4-yl]-amine]	–	–	–	263 to 264
COc1ccc(Nc2ncnc3[nH]c(-c4ccc(CN5CCN(C)CC5)cc4)cc23)cn1 [Example 112, (6-Methoxy-pyridin-3-yl)-{6-[4-(4-methyl-piperazin-1-ylmethyl)-phenyl]-7H-pyrrolo[2,3-d]pyrimidin-4-yl}-amine]	–	–	–	241 to 242
CN(C)Cc1ccc(-c2cc3c(Nc4ccc(=O)[nH]c4)ncnc3[nH]2)cc1 [Example 116, 5-[6-(4-Dimethylaminomethyl-phenyl)-7H-pyrrolo[2,3-d]pyrimidin-4-ylamino]-1H-pyridin-2-one]	15.5	39	15.5	–
CCN1CCN(Cc2ccc(-c3cc4c(NCc5ccnc(OC)c5)ncnc4[nH]3)cc2)CC1 [Example 122, (2-Methoxy-pyridin-4-ylmethyl)-{6-[4-(4-ethyl-piperazin-1-ylmethyl)-phenyl]-7H-pyrrolo[2,3-d]pyrimidin-4-yl}-amine]	–	–	–	210 to 212
COc1cc(CNc2ncnc3[nH]c(-c4ccc(CN(C)C)cc4)cc23)ccn1 [Example 124, (2-Methoxy-pyridin-4-ylmethyl)-{6-[4-(dimethylamino-methyl)-phenyl]-7H-pyrrolo[2,3-d]pyrimidin-4-yl}-amine]	–	–	–	210 to 211
COc1cc(CNc2ncnc3[nH]c(-c4ccc(CN5CCN(C)CC5)cc4)cc23)ccn1 [Example 125, (2-Methoxy-pyridin-4-ylmethyl)-{6-[4-(4-methyl-piperazin-1-ylmethyl)-phenyl]-7H-pyrrolo[2,3-d]pyrimidin-4-yl}-amine]	–	–	–	211 to 212
CCN1CCN(Cc2ccc(-c3cc4c(NCc5cc[nH]c(=O)c5)ncnc4[nH]3)cc2)CC1 [Example 129, 4-({6-[4-(4-Ethyl-piperazin-1-ylmethyl)-phenyl]-7H-pyrrolo[2,3-d]pyrimidin-4-ylamino}-methyl)-1H-pyridin-2-one]	–	–	–	291 to 292
Cc1cc2c(F)c(Oc3ncnc4[nH]c(-c5ccc(CN6CCOCC6)cc5)cc34)ccc2[nH]1 [Example 143, 4-(4-Fluoro-2-methyl-1H-indol-5-yloxy)-6-(4-morpholin-4-ylmethyl-phenyl)-7H-pyrrolo[2,3-d]pyrimidine]	–	–	–	280 to 282
C[C@@H](Nc1ncnc2[nH]c(-c3ccc(CN4CCNCC4)cc3)cc12)c1ccccc1 [Example 145, ((R)-1-Phenyl-ethyl)-[6-(4-piperazin-1-ylmethyl-phenyl)-7H-pyrrolo[2,3-d]pyrimidin-4-yl]-amine]	–	–	–	240 to 242

Further lines, results first:

IC50 (VEGF Receptor (KDR)) [nM]	IC50 (EGF-R (HER-1)) [nM]	IC50 (ErbB-2 (HER-2)) [nM]	melting point [°C]	SMILES
17	2.4	9.4	288 to 290	Fc1ccc(Nc2ncnc3[nH]c(-c4ccc(CNC5CCOCC5)cc4)cc23)cc1Cl [Example 8a, (3-Chloro-4-fluoro-phenyl)-(6-{4-[(tetrahydro-pyran-4-ylamino)-methyl]-phenyl}-7H-pyrrolo[2,3-d]pyrimidin-4-yl)-amine]
–	–	–	231 to 233	CCN1CCN(Cc2ccc(-c3cc4c(NCc5cccc(OC)c5)ncnc4[nH]3)cc2)CC1 [Example 107c, {6-[4-(4-Ethyl-piperazin-1-ylmethyl)-phenyl]-7H-pyrrolo[2,3-d]pyrimidin-4-yl}-(3-methoxy-benzyl)-amine]
–	–	–	246 to 248	Cc1cccc(CNc2ncnc3[nH]c(-c4ccc(CN5CCCCC5)cc4)cc23)c1 [Example 107d, (3-Methyl-benzyl)-[6-(4-piperidin-1-ylmethyl-phenyl)-7H-pyrrolo[2,3-d]pyrimidin-4-yl]-amine]
–	–	–	259 to 261	Cc1cccc(CNc2ncnc3[nH]c(-c4ccc(CN5CCOCC5)cc4)cc23)c1 [Example 107e, (3-Methyl-benzyl)-[6-(4-morpholin-4-ylmethyl-phenyl)-7H-pyrrolo[2,3-d]pyrimidin-4-yl]-amine]
–	–	–	241 to 243	Cc1cccc(CNc2ncnc3[nH]c(-c4ccc(CN5CCCC5)cc4)cc23)c1 [Example 107h, (3-Methyl-benzyl)-[6-(4-pyrrolidin-1-ylmethyl-phenyl)-7H-pyrrolo[2,3-d]pyrimidin-4-yl]-amine]
–	–	–	244 to 246	Cc1cccc(CNc2ncnc3[nH]c(-c4ccc(CN5CCN(C)CC5)cc4)cc23)c1 [Example 107i, (3-Methyl-benzyl)-{6-[4-(4-methyl-piperazin-1-ylmethyl)-phenyl]-7H-pyrrolo[2,3-d]pyrimidin-4-yl}-amine]
–	–	–	250 to 252	CCN1CCN(Cc2ccc(-c3cc4c(NCc5cccc(C)c5)ncnc4[nH]3)cc2)CC1 [Example 107j, {6-[4-(4-Ethyl-piperazin-1-ylmethyl)-phenyl]-7H-pyrrolo[2,3-d]pyrimidin-4-yl}-(3-methyl-benzyl)-amine]
